Data reported in patent US6642264B1, “Thiazolobenzoimidazole derivatives” (Yamanouchi Pharmaceutical Co., Ltd., priority 1999, dated 2003).
Structures can show the parent of a compound that is named as a salt.

Assays:
[1] = target: T1, mGluR1 (Rattus norvegicus, UniProt P23385); experiment: mGluR1 binding test with tritium-labeled ligand on rat cerebellum P2 membrane fraction
T1 construct: from tissue; host or cells: rat (Wistar) cerebellum P2 membrane fraction
Method: Rats (Wistar, males, 9 to 12 weeks of age) were decapitated to excise cerebella. After weight measurement, they were homogenized in 7 to 10 volumes of 0.32 M sucrose solution. After 15 minutes of centrifugation at 900×g, the supernatant was preserved in a container (in ice). The precipitate was again homogenized in 0.32 M sucrose solution of the same volume of the first time and centrifuged at 900×g for 15 minutes. The supernatant obtained this time was combined with the previously obtained supernatant and centrifuged at 15,000×g for 20 minutes. The precipitate was homogenized in 5 mM Tris-HCl, pH 7.4, and centrifuged at 15,000×g for 15 minutes. This step was repeated again. The precipitate was homogenized in 50 mM Tris-HCl, pH 7.4, and centrifuged at 15,000×g for 15 minutes. The precipitate was homogenized in an appropriate amount of 50 mM Tris-HCl, pH 7.4, subdivided into small portions and then preserved at −80° C.
The binding test was carried out by the following modified method of Thomsen et al.
As the assay buffer, 50 mM Tris-HCl, 2.5 mM CaCl2, pH 7.4, was used. […] Quantity of the radioactivity was measured using a liquid scintillation counter. […]

[2] = target: T2, mGluR1 α (Rattus norvegicus, UniProt P23385); experiment: phosphatidylinositol (PI) hydrolysis system using mGluR1 α expression cells; type: cell-based; conditions: read-out: IC50, inhibition of the reaction of glutamic acid in PI hydrolysis system
T2 construct: expressed in transfected cells
T2 sequence (P23385 19-1199): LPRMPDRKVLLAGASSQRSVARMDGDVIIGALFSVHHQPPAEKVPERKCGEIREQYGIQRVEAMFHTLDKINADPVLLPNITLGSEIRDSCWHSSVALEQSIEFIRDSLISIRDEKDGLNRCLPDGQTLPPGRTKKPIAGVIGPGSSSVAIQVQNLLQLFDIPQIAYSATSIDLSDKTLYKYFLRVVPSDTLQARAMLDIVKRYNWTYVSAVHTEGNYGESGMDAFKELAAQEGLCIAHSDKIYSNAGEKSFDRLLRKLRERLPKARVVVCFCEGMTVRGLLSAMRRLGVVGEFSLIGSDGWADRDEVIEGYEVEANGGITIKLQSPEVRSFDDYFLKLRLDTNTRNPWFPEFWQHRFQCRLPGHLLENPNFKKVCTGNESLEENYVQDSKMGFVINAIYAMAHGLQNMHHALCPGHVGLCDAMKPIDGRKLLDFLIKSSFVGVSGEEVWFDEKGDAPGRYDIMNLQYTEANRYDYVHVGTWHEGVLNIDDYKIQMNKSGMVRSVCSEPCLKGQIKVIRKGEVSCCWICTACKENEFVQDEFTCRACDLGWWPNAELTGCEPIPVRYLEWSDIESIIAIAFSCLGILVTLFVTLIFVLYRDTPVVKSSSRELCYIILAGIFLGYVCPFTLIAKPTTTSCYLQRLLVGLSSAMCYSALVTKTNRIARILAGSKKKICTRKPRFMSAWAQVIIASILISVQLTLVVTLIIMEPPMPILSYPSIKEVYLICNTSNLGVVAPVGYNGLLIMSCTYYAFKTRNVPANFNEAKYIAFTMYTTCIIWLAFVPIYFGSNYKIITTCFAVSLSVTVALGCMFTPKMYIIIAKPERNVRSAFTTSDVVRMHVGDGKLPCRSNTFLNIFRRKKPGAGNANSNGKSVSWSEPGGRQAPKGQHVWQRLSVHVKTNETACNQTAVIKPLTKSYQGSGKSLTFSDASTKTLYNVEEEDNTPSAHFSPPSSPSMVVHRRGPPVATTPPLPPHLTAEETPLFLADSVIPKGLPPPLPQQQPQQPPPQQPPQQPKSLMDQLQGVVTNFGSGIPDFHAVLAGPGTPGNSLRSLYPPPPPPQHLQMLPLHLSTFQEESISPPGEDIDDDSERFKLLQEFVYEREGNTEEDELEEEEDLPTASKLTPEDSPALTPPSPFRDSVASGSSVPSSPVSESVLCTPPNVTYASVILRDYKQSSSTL

T1 sequence (P23385 19-1199): as above

Bmax in the saturation test [1] [pmol/mg protein] | Kd ([1]; room temperature, 45 minutes, read-out: KD value in the saturation test) [nM] | IC50 [2] [nM] | Compound
3.9 | 47 |  | [3H]C([3H])([3H])N(C(=O)c1sc2nc3ccc(N)cc3n2c1C)C1CCCCC1 [[^3H]-6-Amino-N-cyclohexyl-N,3-dimethylthiazolo[3,2-a]benzoimidazole-2-carboxamide]
 |  | 20 | CN(C(=O)c1cn2c(nc3ccc(NC(=O)CN)cc32)s1)C1CCCCC1 [Example 41, N-Cyclohexyl-6-glycylamino-N-methylthiazolo[3,2-a]benzoimidazole-2-carboxamide dihydrochloride]
